The nature of data set [1]: Stability assay in liver microsome in vitro. It counts as in vitro ADME, Mouse. How it is done:
IV. Stability Assay in Liver Microsome In Vitro
To evaluate the metabolic stability of the compounds of the present invention in liver microsome in vitro.
Formulation of the working solution of the compound: 2 μL of the stock solution of the compound was added to 998 μL of phosphate buffer, and the final concentration was 20 μM.
Formulation of the working solution of the control compound (7-hydroxycoumarin): The formulation was consistent with that of the compound. • 3.2. Formulation of the working solution of liver microsome
78.1 μL of 20 mg/mL microsome was diluted to 2.5 mL with 100 mM phosphate buffer and mixed well, and the final concentration was 0.625 mg/mL. • 3.3. Formulation of NADPH and UDPGA
33.3 mg of NADPH and 25.8 mg of UDPGA were weighed respectively, followed by the addition of 2 mL of 100 mM phosphate buffer. The final concentrations were 20 mM. • 3.4. Formulation of the channel-forming reagent (Alamethicin)
1 mg of Alamethicin was weighed, to which 200 μL of DMSO was added to obtain a 5 mg/mL solution. 10 μL of this solution was added to 990 μL of phosphate buffer (pH 7.4), and the final concentration was 50 μg/mL. • 3.5. Formulation of the reaction stop solution
Stop solution: Cold acetonitrile containing 100 ng/mL labetalol hydrochloride and 400 ng/mL tolbutamide was used as internal standards, and stored in a refrigerator at 2 to 8° C. • 3.6. Incubation procedure
400 μL of the formulated liver microsome, 25 μL of the working solution of the compound […] and 25 μL of Alamethicin (50 μg/mL) were added to a 96-well plate successively, which was then pre-incubated at 37° C. for 10 min. 50 μL of the formulated NADPH/UDPGA was added to initiate the reaction, and the plate was incubated at 37° C. The total volume of the reaction system was 500 μL. The final contents of the components were as follows:
[…] The resulting sample was centrifuged at 4000 g for 10 min, and the supernatant was collected for LC-MS/MS analysis.
For orientation: Liver microsomes are a subcellular fraction often used to study metabolism.

Another data set relates to Rats F344. The data set can be described thus: Pharmacodynamic model of active escape experiment in rats. It counts as in vivo. The settings on record: oral, dose 1 mg/kg, one hour before the test. How it is done:
V. Pharmacodynamic Model of Active Escape Experiment in Rats
To evaluate the anti-schizophrenic effect of the compounds using the pharmacodynamic model of the active escape experiment in rats.
4. Formulation of the Vehicle and Compounds: • 4.1 Vehicle (0.5% CMC-Na+1% Tween80)
A certain mass (such as 1.0 g) of CMC-Na was weighed into a glass bottle, a certain volume (such as 200 mL) of purified water was added, and the resulting mixture was stirred to disperse evenly. 1% (v/v) Tween 80 was added according to the solution volume, and the resulting mixture was stirred overnight to obtain a homogeneous clear solution, which was stored at 2 to 8° C. for later use. • 4.2 Formulation of the compounds: […]
A formula amount of the compound was weighed, followed by the addition of a formula volume of 0.5% CMC-Na+1% Tween 80 solution. The compound solution was formulated before the administration, stored at 2 to 8° C., and used within 4 days.
The day before the compound screening test, a baseline test was performed. The test procedure was the same as 5.1.1 to 5.1.3, and the number of the baseline test was 20. The animals whose number of avoids reached 16 (80%) were grouped according to the number of avoids, 10 animals per group. The first group was administered with the vehicle orally, and the other groups were administered with the corresponding test compounds according to the experimental design. • 5.3 Compound screening test
The compound was administered orally (5 mL/kg) one hour before the test;
The test procedure was the same as 5.1.1 to 5.1.4, and the number of the test was 20.
The following data was collected by the software for data analysis: • Number of avoids of the animal; • Number of escape failures of the animal; • Escape latency of the animal;
All measurement data were expressed as mean±standard error (Mean±SEM), and analyzed by Graphpad 6 statistical software. The difference was considered to be significant when p<0.05.

Data set [2] is described as follows: Pharmacokinetic assay in Balb/c mice (plasma and brain tissue). It counts as in vivo. The settings on record: p.o. 5 mg/kg; for AUC(0-t) / AUC(0-inf) / Cmax / MRT / half-life: male, Balb/c, mouse, po; for AUC(0-t): read-out: Area under curve AUC0-t; for AUC(0-inf): read-out: Area under curve AUC0-∞; for Cmax: read-out: Plasma concentration Cmax; for MRT: read-out: Average residence time MRT; for half-life: read-out: Half life t1/2 (converted). The protocol:
III. Pharmacokinetic Assay in Balb/c Mice
Balb/c mice were used as test animals. The pharmacokinetic behavior of the compounds of Examples of the present invention was studied in mouse body (plasma and brain tissue) by orally administration at a dose of 5 mg/kg.
Male Balb/c mice (12 mice per group), purchased from Shanghai Jiesijie Laboratory Animal Co., LTD, with Certificate No.: SCXK (Shanghai) 2013-0006 N0.311620400001794. • 2.3 Formulation of the preparation: […]
The test compound was dissolved in 0.5% CMC-Na (1% Tween80) by sonication to formulate a clear solution or homogeneous suspension. • 2.4 Administration:
After an overnight fast, male Balb/c mice (12 mice per group) were administered p.o. with the test compound at a dose of 5 mg/kg and a volume of 10 mL/kg. • 2.5 Sample collection:
0.2 mL of blood was taken from the heart of the mouse before administration and at 1, 2, 4, 8 and 24 hours after administration, and the mice were sacrificed with CO2. The samples were stored in EDTA-K2 tubes, and centrifuged for 6 minutes at 4° C., 6000 rpm to separate the plasma. The plasma samples were stored at −80° C. Whole brain tissue was taken out, weighed, placed in a 2 mL centrifuge tube, and stored at −80° C. • 2.6 Sample process:
1) 160 μL of acetonitrile was added to 40 μL of the plasma sample for precipitation, and then the mixture was centrifuged at 3500×g for 5 to 20 minutes.
2) 90 μL of acetonitrile containing internal standard (100 ng/mL) was added to 30 μL of the plasma and brain homogenate sample for precipitation, and then the mixture was centrifuged at 13000 rpm for 8 minutes.
3) 70 μL of water was added to 70 μL of the treated supernatant and mixed by vortex for 10 minutes. 20 μL of the solution was taken to analyze the concentration of the test compound by LC/MS/MS. LC/MS/MS analytical instrument: AB Sciex API 4000 Qtrap. • 2.7 Liquid chromatography analysis: • Liquid chromatography condition: Shimadzu LC-20AD pump • Chromatographic column: Agilent ZORBAX XDB-C18 (50×2.1 mm, 3.5 μm); Mobile phase: Eluent A was 0.1% formic acid in water, and Eluent B was acetonitrile • Flow rate: 0.4 mL/min • Elution time: 0-4.0 minutes the eluent is as follows:
The main parameters of pharmacokinetics were calculated by WinNonlin 6.1.

Data set [3] addresses Human Dopamine D3 Receptor (Homo sapiens (Human), UniProt P35462). The data set can be described thus: Radioligand-receptor binding assay, dopamine D3 receptor ([3H]-methylspiperone). The conditions noted are these: [3H]-methylspiperone 0.5 nM, human D3 receptor membrane. How it is done: Determination of the Binding Ability of the Compounds of the Present Invention to Dopamine D3 Receptor
The objective of this test example is to determine the affinity of the compounds for dopamine D3 receptor.
Assay buffer: 50 mM Tris-HCl pH 7.4, 10 mM MgCl2; wash solution: 50 mM Tris-HCl pH 7.4, stored at 4° C.; 0.5% PEI solution: 0.5 g PEI dissolve in 100 mL ddH2O, 4° C. storage of spare.
(§1) 5 μL of the test compounds (0.005 nM to 100 nM, 10 concentrations in total) and 100 μL of buffer were added to a 96-well assay plate. 1 μL of cell membrane and 300 μL of buffer were added to each well, and the plate was shaken at 600 rpm for 5 min. A mixed solution of 100 μL of buffer and [^3H]-methylspiperone (the final concentration was 0.5 nM) was added to each well. The plate was shaken at 600 rpm for 5 min, and incubated at 27° C. for 30 min. The […]-96 GF/B filter plate pre-incubated with 0.5% PEI for 1 h was washed twice with the buffer (1 mL/well). The cell membrane suspension was added to the […]-96 GF/B filter plate, washed 4 times, and incubated at 55° C. for 10 min. 40 μL of ULTIMA GOLD was added to each well, and liquid scintillation counting was carried out.
(§2) The CPM (Counts per minute) values were determined by TopCount. […] The 10 concentrations of the compound were from 100 nM to 0.005 nM after 3-fold dilution of the reaction system. The percent inhibition rate and ten-point concentration data were fitted to the parametric nonlinear logistic equation by using GraphPad prism to calculate the IC50 values of the compound.

The target of data set [4] is T1, 5-HT2A receptor (Homo sapiens (Human), UniProt P28223). As to the kind of experiment: Radioligand-receptor binding assay, 5-HT2A receptor ([3H]-Ketanserin). The conditions noted are these: [3H]-Ketanserin 2 nM, human 5-HT2A receptor membrane; read-out: 5HT-2A binding activity IC50. The protocol:
Determination of the Binding Ability of the Compounds of the Present Invention to 5-HT2A Receptor
The objective of this test example is to determine the affinity of the compounds for 5-HT2A receptor.
Assay buffer: 50 mM Tris-HCl pH 7.4, 4 mM CaCl2); wash solution: 50 mM Tris-HCl pH 7.4, stored at 4° C.; 0.5% PEI solution: 0.5 g PEI dissolve in 100 mL ddH2O, 4° C. storage of spare.
as §1, with “plate. 1.5” for “plate. 1”, “300 L” for “300 μL”, “each well. The” for “each well, and the”, “and [^3H]-Ketanserin” for “and [^3H]-methylspiperone”, “was 2” for “was 0.5”
as §2

Data set [5] addresses T1, 5-HT2A receptor. As to the kind of experiment: Effect on calcium ion mobility in cells stably expressing 5-HT2A receptors (Flp-In-CHO-5HT2A, FLIPR). The settings on record: Flp-In-CHO-5HT2A cells, 5HT as agonist. It counts as cell-based. The protocol:
To determine the inhibitory effect of the compounds on 5-HT2A receptor.
Probenecid and BSA were added fresh on the day of the experiment.
The calcium signal values were determined by FLIPR. […] The percent inhibition rate and ten-point concentration data were fitted to the parametric nonlinear logistic equation by using GraphPad prism to calculate the IC50 values of the compound.

A further data set has as its target D3 receptor (Homo sapiens (Human), UniProt P35462). As to the kind of experiment: Effect on cAMP content in cells stably expressing D3 receptors (CHO-D3). The settings on record: forskolin stimulated, activation. It counts as cell-based. How it is done: To determine the activation effect of the compounds on D3 receptor.
3. The experimental buffer (1*HBSS, 0.1% BSA, 20 mM HEPES and 500 μM IBMX) was prepared. The compound was diluted with the buffer. 2.5 μL of the compound solution was added to each well, and the plate was incubated at 37° C. for 10 minutes. The forskolin was diluted to 8 μM (8*) with the experimental buffer. […] The reaction plate was centrifuged at 200 g for 30 s at room temperature, and left to stand at 25° C. for 1 h. Data was collected using Envision.

What is called MRT is a mean duration of stay, worked out from the concentration-time curve. Broadly, the IC50 is the midpoint of a concentration-inhibition curve. Usually EC50 stands for the concentration that produces a half-maximal response. A low value points to a more potent agent.

Read-outs that look alike come from different tables or passages of the source.

T1 sequence (P28223 whole entry): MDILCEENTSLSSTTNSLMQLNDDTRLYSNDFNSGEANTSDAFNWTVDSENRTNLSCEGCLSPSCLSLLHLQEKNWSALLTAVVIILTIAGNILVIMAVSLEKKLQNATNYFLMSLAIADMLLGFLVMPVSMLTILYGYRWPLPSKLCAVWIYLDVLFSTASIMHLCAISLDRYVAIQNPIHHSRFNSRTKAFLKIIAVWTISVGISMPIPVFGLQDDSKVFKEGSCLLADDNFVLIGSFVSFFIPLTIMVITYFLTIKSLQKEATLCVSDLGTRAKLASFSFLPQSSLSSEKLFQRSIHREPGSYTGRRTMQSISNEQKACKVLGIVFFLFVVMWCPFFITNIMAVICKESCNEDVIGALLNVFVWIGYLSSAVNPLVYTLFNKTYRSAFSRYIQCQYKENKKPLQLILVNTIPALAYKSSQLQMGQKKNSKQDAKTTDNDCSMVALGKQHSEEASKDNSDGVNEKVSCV
Sequence of Human Dopamine D3 Receptor (P35462 whole entry): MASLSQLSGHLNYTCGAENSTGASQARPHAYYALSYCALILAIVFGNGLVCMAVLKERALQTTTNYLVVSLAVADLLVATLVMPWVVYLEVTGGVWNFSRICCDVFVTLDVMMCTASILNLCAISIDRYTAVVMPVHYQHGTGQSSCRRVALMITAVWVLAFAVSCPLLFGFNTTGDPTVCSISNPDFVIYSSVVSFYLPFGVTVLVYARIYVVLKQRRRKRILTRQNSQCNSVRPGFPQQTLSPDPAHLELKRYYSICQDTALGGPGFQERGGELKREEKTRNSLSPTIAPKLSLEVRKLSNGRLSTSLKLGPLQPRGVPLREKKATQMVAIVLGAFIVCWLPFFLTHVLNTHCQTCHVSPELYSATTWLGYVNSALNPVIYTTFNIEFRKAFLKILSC
Sequence of D3 receptor (P35462 whole entry): as above

Turning to `CN(C)C(=O)N[C@H]1CC[C@H](CCN2CCN(c3cccc(Cl)c3Cl)CC2)CC1` [Cariprazine, reference compound], the half-life at 1 μM in data set [1] (CD-1, liver microsomes, pH 7.4, Mouse liver microsome 0.5 mg/mL, compound 1 μM, NADPH/UDPGA, read-out: Half life (t1/2)) is 1.1 h. Further, in data set [1] (CD-1, liver microsomes, pH 7.4, Mouse liver microsome, note: Slow <8.8, Rapid >48.0, read-out: Intrinsic clearance rate (CLint)), the microsomal CLint at 1 μM was 21.1 µL/min/mg. Further, in data set [1] (Mouse liver microsome, 120 min), the “Remaining (%, 120 min)” value is listed as 30.5%. In the data set with Rats F344, this molecule displayed a CAR value of 45.5% and an EF of 5.5%.
For `O=C(N[C@H]1CC[C@](F)(CCN2CCN(c3cccc4sccc34)CC2)CC1)c1ccco1` [Example 40, N-(Cis-4-(2-(4-(benzo[b]thiophen-4-yl)piperazin-1-yl)ethyl)-4-fluorocyclohexyl)furan-2-carboxamide], in data set [2] (Brain), the Peak time tmax amounted to 1 h, the AUC(0-t) worked out at 4590 ng·h/mL, the AUC(0-inf) was determined as 4960 ng·h/mL and the Cmax came out at 328 ng/mL. In data set [2] (Plasma), the Peak time tmax came out at 6 h, the AUC(0-t) amounted to 3070 ng·h/mL, the AUC(0-inf) was determined as 3390 ng·h/mL and the mean residence time (MRT) amounted to 9.21 h. In addition, in data set [2] (Plasma), the half-life is 7.3 h and the Cmax was 192 ng/mL. The molecule also showed an IC50 in data set [3] of 0.83 nM. Further, the IC50 on 5-HT2A receptor [4] came to 0.43 nM. Moreover, the IC50 on 5-HT2A receptor [5] came out at 3.16 nM.
As for `O=C(N[C@H]1CC[C@H](CCN2CCN(c3cccc4sccc34)CC2)CC1)c1ncco1` [Example 43, N-(Trans-4-(2-(4-(benzo[b]thiophen-4-yl)piperazin-1-yl)ethyl)cyclohexyl)oxazole-2-carboxamide], the EC50 at D3 receptor worked out at 0.1 nM. For the same molecule, in data set [2] (Brain), the Peak time tmax was 1 h, the AUC(0-t) came to 14100 ng·h/mL, the AUC(0-inf) was found to be 16500 ng·h/mL and the Cmax was determined as 1390 ng/mL. For the same molecule, in data set [2] (Plasma), the Peak time tmax is 1 h, the AUC(0-t) was determined as 4140 ng·h/mL, the AUC(0-inf) was 4860 ng·h/mL and the MRT was 11.8 h. Besides, in data set [2] (Plasma), the half-life is 8.9 h and the Cmax was 403 ng/mL. This molecule also had a half-maximal inhibitory concentration (IC50) in data set [3] of 0.43 nM. Moreover, the IC50 on 5-HT2A receptor [4] stood at 0.37 nM.

These data come from US12459931B2, “Benzothiophene derivative regulator, preparation method therefor and use thereof” (Shanghai Hansoh Biomedical Co., Ltd., priority 2019, dated 2025).
